The record followed here is paper PMC11881906, “Development of xanthone derivatives as effective broad-spectrum antimicrobials: Disrupting cell wall and inhibiting DNA synthesis” (Science Advances, 2025).

Series [1] concerns MRSA N315. Kind of series: MIC, broth microdilution. Format: cell-based. The following applies: Staphylococcus aureus, 24-hour incubation, MHB, read-out: MIC90 MRSA N315. On the procedure:
(§1) MIC was determined using the broth microdilution method in accordance with Clinical and Laboratory Standards Institute guidelines. All compounds were dissolved in dimethyl sulfoxide (DMSO; final DMSO concentration of less than 0.5%) and sterile double-distilled water and then diluted with Mueller-Hinton broth (MHB). Each compound’s stock solution was serially twofold diluted, resulting in concentrations ranging from 0.39 to 100 μg/ml, and thereafter added to sterile 96-well plates. All bacterial cell suspensions were adjusted in MHB to attain a starting inoculum of 1 × 10^6 cells/ml. A total of 100 μl volume of the bacterial suspension was then added to each well. Following a 24-hour incubation at 37°C, the optical density at 600 nm (OD600) was confirmed by measuring absorbance at 600 nm with a BioTek microplate reader. […] All measurements were repeated three times with duplicates each time.

The subject of series [2] is MRSA NCTC 10442. Kind of series: MIC, broth microdilution. Format: cell-based. As to conditions: Staphylococcus aureus; 24-hour incubation, MHB; read-out: MIC90 MRSA NCTC 10442. On the procedure: as §1
Series [3] concerns S. aureus ATCC 29213. As to the kind of experiment: MIC, broth microdilution. It counts as cell-based. The following applies: Staphylococcus aureus, ATCC29213, 24 h, 24-hour incubation, MHB; read-out: MIC90 S. aureus ATCC 29213. On the procedure:
as §1

The subject of series [4] is E. coli ATCC 25922. Kind of series: MIC, broth microdilution. It counts as cell-based, Escherichia coli. The following applies: 24-hour incubation, MHB; for MIC90: Escherichia coli, ATCC25922, 24 h, read-out: MIC90 E. coli ATCC 25922. On the procedure:
as §1

For series [5], the system named is rabbit erythrocytes. Kind of series: Hemolysis assay. It counts as cell-based. As to conditions: concentration causing 50% hemolysis of red blood cells; 1 hour, 37°C. On the procedure:
The hemolytic activity of antimicrobial agents was investigated as previously described ([70]). Briefly, the rabbit erythrocytes were centrifuged at 2500 rpm for 3 min before being washed twice with sterile phosphate-buffered saline (PBS) (pH 7.4). Subsequently, the erythrocytes were diluted with PBS to a final concentration of 8% (v/v). The DMSO-dissolved compounds were twofold serially diluted in PBS to achieve a final concentration with DMSO less than 0.5%. […] Sterile PBS and 0.2% Triton X-100 were used as negative and positive controls, respectively. After 1 hour of incubation at 37°C, the tested samples were centrifuged at 2500 rpm for 5 min, and aliquots of the supernatant were added to 96-well microplates. The hemoglobin release was determined by measuring the absorbance at 576 nm using a BioTek multimode reader. The percentage of hemolytic activity was calculated using the following formula: Hemolysis rate (%) = [OD576 (compound) − OD576 (PBS)]/[OD576 (Triton X-100) − OD576 (PBS)] × 100. All measurements were repeated three times with duplicates each time.

For series [6], the system named is A. baumannii ATCC 17978. As to the kind of experiment: MIC, broth microdilution. Format: cell-based. The following applies: Acinetobacter baumannii, ATCC17978; 24-hour incubation, MHB. On the procedure: as §1
The subject of series [7] is A. baumannii R2889. As to the kind of experiment: MIC, broth microdilution. Format: cell-based. As to conditions: Acinetobacter baumannii, 24-hour incubation, MHB. On the procedure:
as §1

For series [8], the system named is K. pneumonia ATCC 10031. As to the kind of experiment: MIC, broth microdilution. It counts as cell-based. As to conditions: Klebsiella pneumoniae, ATCC10031; 24-hour incubation, MHB. On the procedure:
as §1

Series [9] deals with K. pneumonia ATCC 14581. Kind of series: MIC, broth microdilution. Format: cell-based. The following applies: Klebsiella pneumoniae, ATCC14581; 24-hour incubation, MHB. On the procedure:
as §1

Series [10] deals with P. aeruginosa ATCC 9027. As to the kind of experiment: MIC, broth microdilution. It counts as cell-based. The following applies: Pseudomonas aeruginosa, ATCC9027; 24-hour incubation, MHB. On the procedure:
as §1

The test system of series [11] is Gram-positive bacteria. As to the kind of experiment: MIC, summary over Gram-positive strains. Format: cell-based. As to conditions: read-out: MICs against Gram-positive bacteria, three Gram-positive strains. On the procedure:
as §1

Series [12] can be described thus: CCK-8 cytotoxicity assay. Format: cell-based. The following applies: mouse, NCTC clone 929 fibroblast cells, 25 μg/ml, read-out: %Viable cells NCTC clone 929 cells. On the procedure:
Cytotoxicity of the compound tested was assessed by CCK-8 assays as previously described ([71]). […] Following a 24-hour incubation, 10 μl of CCK-8 reagent was added to each well and incubated for 1 hour. The absorbance at 450 nm was measured by a microplate reader. All measurements were repeated three times with duplicates each time.

Each structure is given as a SMILES string. In brackets after ≈: the same amount, converted by molar mass.

Take `CC(C)=CCOc1cc(OCCCCN)cc2oc3cc(OCCCCN)ccc3c(=O)c12` [XT33]: the MIC90 in series [1] stood at 3.12 µg/mL (≈ 6.87 µM); in [2], 3.12 µg/mL (≈ 6.87 µM); in [3] it was 3.12 µg/mL (≈ 6.87 µM); in series [4], 12.5 µg/mL (≈ 27.5 µM). Further, the HC50 in [5] is above 200 µg/mL.
`CNCCCCCCOc1ccc2c(=O)c3c(OCC=C(C)C)cc(OCCCCCCNC)cc3oc2c1` [XT34]: the MIC90 was determined as 1.56 µg/mL (≈ 2.9 µM) in series [1], 1.56 µg/mL (≈ 2.9 µM) in series [2], 1.56 µg/mL (≈ 2.9 µM) in series [3] and 12.5 µg/mL (≈ 23.2 µM) in [4]. In [5], this compound registered an HC50 above 200 µg/mL.
`CCN(CC)CCCCCCOc1ccc2c(=O)c3c(OCC=C(C)C)cc(OCCCCCCN(CC)CC)cc3oc2c1` [XT35]: the MIC90 in series [1] came to 3.12 µg/mL (≈ 5.02 µM); in [2], 3.12 µg/mL (≈ 5.02 µM); in [3] it was 1.56 µg/mL (≈ 2.5 µM); in series [4], 50 µg/mL (≈ 80.3 µM). This compound also returned a concentration for 50% haemolysis (HC50) in series [5] above 200 µg/mL.
As to `CNCCCCCCCCOc1ccc2c(=O)c3c(OCC=C(C)C)cc(OCCCCCCCCNC)cc3oc2c1` [XT37], the MIC90 in [1] was 0.39 µg/mL (≈ 0.656 µM); in series [2], 0.39 µg/mL (≈ 0.656 µM); in series [3], 0.78 µg/mL (≈ 1.31 µM); in [4], 6.25 µg/mL (≈ 10.5 µM). The compound also showed an HC50 in series [5] above 200 µg/mL.
Regarding `CCN(CC)CCCCCCCCOc1ccc2c(=O)c3c(OCC=C(C)C)cc(OCCCCCCCCN(CC)CC)cc3oc2c1` [XT38], the MIC90 was 0.78 µg/mL (≈ 1.15 µM) in [1], 1.56 µg/mL (≈ 2.3 µM) in series [2], 0.39 µg/mL (≈ 0.574 µM) in series [3] and above 50 µg/mL in series [4]. In addition, the HC50 in series [5] is above 200 µg/mL.
As for `CNCCCCCCCCCCCCOc1ccc2c(=O)c3c(OCC=C(C)C)cc(OCCCCCCCCCCCCNC)cc3oc2c1` [XT40], the MIC90 was 12.5 µg/mL (≈ 17.7 µM) in series [1], 6.25 µg/mL (≈ 8.84 µM) in [2], 25 µg/mL (≈ 35.4 µM) in series [3] and above 100 µg/mL in series [4]. For the same compound, the “MIC90 E. coli ATCC 25922” value in series [4] was above 100 µg/mL. Also, the HC50 in series [5] is above 200 µg/mL.
As for `CCN(CC)CCCCCCCCCCCCOc1ccc2c(=O)c3c(OCC=C(C)C)cc(OCCCCCCCCCCCCN(CC)CC)cc3oc2c1` [XT41], the MIC90 in series [1] was 3.12 µg/mL (≈ 3.95 µM); in [2], 3.12 µg/mL (≈ 3.95 µM); in series [4] it was above 100 µg/mL. The “MIC90 E. coli ATCC 25922” value in series [4] is above 100 µg/mL. In series [5], this compound registered an HC50 above 200 µg/mL.
As to `CC(C)=CCOc1cc(OCCNC(=N)N)cc2oc3cc(OCCNC(=N)N)ccc3c(=O)c12` [XT42], the MIC90 in [6] was above 50 µg/mL; in series [7], above 50 µg/mL; in series [8], 50 µg/mL (≈ 104 µM); in series [9] it was 50 µg/mL (≈ 104 µM); in series [1] it was 1.56 µg/mL (≈ 3.23 µM); in series [2], 1.56 µg/mL (≈ 3.23 µM). The MIC90 in [10] is 6.25 µg/mL (≈ 13 µM); in series [3], 1.56 µg/mL (≈ 3.23 µM). In series [5], this compound yielded an HC50 above 200 µg/mL. The MIC in series [11] lay in the range of 0.098 to 1.56 µg/mL (≈ 0.203 to 3.23 µM).
Regarding `CC(C)=CCOc1cc(OCCCCNC(=N)N)cc2oc3cc(OCCCCNC(=N)N)ccc3c(=O)c12` [XT43], the MIC90 in [6] turned out to be 12.5 µg/mL (≈ 23.2 µM); in series [7] it was 25 µg/mL (≈ 46.4 µM); in [8] it was 6.25 µg/mL (≈ 11.6 µM); in series [9] it was 12.5 µg/mL (≈ 23.2 µM); in series [1], 0.195 µg/mL (≈ 0.362 µM); in series [2] it was 0.195 µg/mL (≈ 0.362 µM). Besides, the values for the MIC90 in series [10], in [3] and in series [4] were 12.5 µg/mL (≈ 23.2 µM), 0.195 µg/mL (≈ 0.362 µM) and 1.56 to 12.5 µg/mL (≈ 2.9 to 23.2 µM), respectively. The “MIC90 E. coli ATCC 25922” value in series [4] worked out at 1.56 µg/mL (≈ 2.9 µM). In series [5], this compound displayed an HC50 above 200 µg/mL. Moreover, in series [11], the MIC was in the range of 0.098 to 1.56 µg/mL (≈ 0.182 to 2.9 µM). The viability at 24 h, 25 μg/ml in series [12] stood at 40.3 ± 1.33%.
As for `CC(C)=CCOc1cc(OCCCCCCCCNC(=N)N)cc2oc3cc(OCCCCCCCCNC(=N)N)ccc3c(=O)c12` [XT45], the MIC90 in series [6] stood at 50 µg/mL (≈ 76.8 µM); in series [7], 50 µg/mL (≈ 76.8 µM); in [8] it was 12.5 µg/mL (≈ 19.2 µM); in series [9] it was 25 µg/mL (≈ 38.4 µM); in series [1], 0.195 µg/mL (≈ 0.3 µM); in [2], 0.39 µg/mL (≈ 0.599 µM). Besides, the figures for the MIC90 in series [10] and in series [3] were above 50 µg/mL and 0.39 µg/mL (≈ 0.599 µM), respectively. The same compound had an HC50 in series [5] above 200 µg/mL. In addition, the MIC in series [11] lay within 0.098 to 1.56 µg/mL (≈ 0.151 to 2.4 µM).
